Among the test systems are 786-0; BT-549; CAKI-1; HCT-116; HCT-15; HOP-92; HT-29; IGROV-1; M14; MDA-MB-435; MDA-N; Malme-3M; OVCAR-4; PC-3; SF-295; SR; TK-10; U-251; NCI-H226; OVCAR-3.
Common to all, as to assay: NCI-60 cell line screen, 48 h

Structures are written as SMILES.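 48-hour exposure; five concentrations; linearly interpolated endpoints. GI50 is the concentration that inhibits growth by half.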 Activity calls are given as the source filed them. Cut-off read from the data, not from the text of the source: active = GI50 up to about 1.1 µM and inactive = higher.

As for `COCN1C(=O)[C@@H]2CCCN2C(=O)c2cc(Cl)ccc21`, the GI50 with 786-0 is > 100 µM (inactive); in the assay with BT-549, > 100 µM (inactive); in the assay with CAKI-1, > 100 µM (inactive); in the assay on HCT-116, > 100 µM (inactive); with HCT-15, over 100 µM; with HOP-92 it was > 100 µM (inactive). The GI50 in the assay on HT-29, in the assay with IGROV-1, in the assay with M14, in the assay on MDA-MB-435, with MDA-N and with Malme-3M was > 100 µM (inactive) throughout. For the same compound, the GI50 in the assay on OVCAR-4, in the assay on PC-3, in the assay with SF-295, in the assay with SR, in the assay with TK-10 and in the assay on U-251 was > 100 µM (inactive) each time.
For `CCOC(=O)/C=C/[C@H](O[Si](CC)(CC)CC)C(C)(C)C`, the GI50 was 80.5 µM (inactive) in the assay on 786-0; > 100 µM (inactive) with BT-549; > 100 µM (inactive) in the assay with CAKI-1; 51.2 µM (inactive) in the assay with HCT-116; 41.5 µM in the assay on HCT-15; > 100 µM (inactive) with HOP-92. Moreover, the GI50 was 34.1 µM (inactive) in the assay with HT-29; > 100 µM (inactive) in the assay with IGROV-1; 59 µM (inactive) with MDA-MB-435; 78.2 µM (inactive) with MDA-N; > 100 µM (inactive) in the assay on Malme-3M; > 100 µM (inactive) with NCI-H226. The GI50 in the assay on OVCAR-3 was 52.7 µM (inactive); in the assay on OVCAR-4 it was 48.1 µM (inactive); in the assay on PC-3, 78.3 µM (inactive); with SF-295, 42.4 µM (inactive); with SR, 22.7 µM (inactive); in the assay on TK-10, > 100 µM (inactive). Besides, the GI50 in the assay on U-251 is 27.4 µM (inactive).
For the compound `C[C@]12CCC3c4ccc(O)cc4CC[C@H]3C1CC(=O)N(N)C2=O` (stereo not given in full), the GI50 in the assay with 786-0, in the assay on BT-549, with CAKI-1, in the assay with HCT-116, in the assay with HOP-92 and in the assay on HT-29 was > 100 µM (inactive) throughout. Moreover, the GI50 in the assay on IGROV-1, in the assay with M14, in the assay with MDA-MB-435, in the assay with MDA-N, with Malme-3M and in the assay on NCI-H226 was > 100 µM (inactive) in each case. Besides, the GI50 in the assay with OVCAR-3, in the assay with OVCAR-4, with PC-3, in the assay on SF-295, with SR and in the assay on TK-10 was > 100 µM (inactive) each time. Further, the GI50 with U-251 is > 100 µM (inactive).
For `COc1cc(NC(C)=O)ccc1C(=O)NN1C(=O)/C(=C/c2ccco2)N=C1c1ccccc1`, the GI50 in the assay with 786-0 was 24.3 µM (inactive); in the assay on BT-549, > 50 µM (inactive); in the assay with CAKI-1 it was > 50 µM (inactive); with HCT-116 it was 30.8 µM (inactive); in the assay with HCT-15, over 50 µM; in the assay on HOP-92, > 50 µM (inactive). Also, the GI50 in the assay on HT-29 is 36.9 µM (inactive); in the assay on IGROV-1, > 50 µM (inactive); in the assay with M14 it was 38.2 µM (inactive); in the assay with MDA-MB-435 it was 25 µM (inactive); with MDA-N, 14.9 µM (inactive); in the assay with Malme-3M, > 50 µM (inactive). The GI50 with OVCAR-3 is > 50 µM (inactive); in the assay on OVCAR-4, 49.5 µM (inactive); in the assay on PC-3 it was > 50 µM (inactive); with SF-295 it was > 50 µM (inactive); in the assay with SR, 22.5 µM (inactive).
As to `CC(=O)OC[C@@H](OC(C)=O)[C@@H](OC(C)=O)[C@H]1OC[C@@H]2C[C@H]([C@H]1OC(C)=O)N(Cc1ccccc1)O2`, the GI50 in the assay with 786-0, in the assay on BT-549, in the assay on CAKI-1, in the assay with HCT-116, in the assay with HOP-92 and with HT-29 was > 100 µM (inactive) each time. Besides, the GI50 with IGROV-1, in the assay with M14, in the assay with MDA-MB-435, with MDA-N, in the assay on Malme-3M and with NCI-H226 was > 100 µM (inactive) in each case. The GI50 in the assay with OVCAR-3, in the assay on OVCAR-4, in the assay on PC-3, with SF-295, with SR and in the assay with TK-10 was > 100 µM (inactive) in each case. Besides, the GI50 in the assay with U-251 was > 100 µM (inactive).
On to `COc1cc(-c2c[nH]c3ccccc23)nc(-c2c[nH]c3ccccc23)n1`, for which the GI50 in the assay on 786-0 is 1.86 µM (inactive); with BT-549 it was 15.9 µM (inactive); with CAKI-1 it was 5.89 µM (inactive); in the assay on HCT-116, 3.43 µM (inactive); in the assay with HCT-15, 5.61 µM; in the assay on HOP-92, 2.34 µM (inactive). The GI50 in the assay on HT-29 is 3.63 µM (inactive); with IGROV-1 it was 1.85 µM (inactive); with M14, 4.07 µM (inactive); with MDA-MB-435, 5.77 µM (inactive); with MDA-N, 4.05 µM (inactive); in the assay with OVCAR-3, 6.71 µM (inactive). Also, the GI50 is 8.81 µM (inactive) with OVCAR-4; 2.84 µM (inactive) in the assay on PC-3; 3.13 µM (inactive) with SF-295; 9.53 µM (inactive) with SR; 7.98 µM (inactive) in the assay on TK-10; 4.19 µM (inactive) in the assay on U-251.
On to `CC(C)C1CNC(=O)C2(/C=N/C(C(C)C)CNC(=O)C3(/C=N/1)CCCO3)CCCO2` (stereo not given), for which the GI50 in the assay on 786-0 is > 10 µM (inactive); in the assay with BT-549, > 10 µM (inactive); with CAKI-1, > 10 µM (inactive); in the assay on HCT-116, > 10 µM (inactive); in the assay on HCT-15, over 10 µM; in the assay on HOP-92, > 10 µM (inactive). Besides, the GI50 in the assay on HT-29, with IGROV-1, with M14, in the assay with MDA-MB-435, with MDA-N and in the assay with Malme-3M was > 10 µM (inactive) in each case. Moreover, the GI50 in the assay with OVCAR-3, in the assay with OVCAR-4, in the assay with PC-3, in the assay with SF-295, in the assay on SR and with TK-10 was > 10 µM (inactive) throughout. The GI50 in the assay with U-251 is > 10 µM (inactive).
Turning to `COC(=O)c1c2c(cc3c1CC1(Cc4cc5c(cc4C1=O)CCC5)C3)CCC2` (stereo not given), the GI50 in the assay with 786-0 was 35.4 µM (inactive); in the assay on BT-549 it was 64.6 µM (inactive); in the assay with CAKI-1, 21 µM (inactive); with HCT-116 it was 13.3 µM (inactive); in the assay on HCT-15, 42.7 µM; in the assay with HT-29 it was 37.4 µM (inactive). In addition, the GI50 with IGROV-1 was 34.3 µM (inactive); with M14, 90.4 µM (inactive); in the assay with MDA-MB-435, 28.1 µM (inactive); with MDA-N it was 20.4 µM (inactive); in the assay on Malme-3M it was 32.9 µM (inactive); in the assay with NCI-H226, 60.3 µM (inactive). In addition, the GI50 is 72.9 µM (inactive) in the assay with OVCAR-3; 34.3 µM (inactive) in the assay with OVCAR-4; 6.68 µM (inactive) in the assay with PC-3; 21.5 µM (inactive) with SF-295; > 10 µM (inactive) in the assay on SR; 22.8 µM (inactive) with TK-10. In addition, the GI50 with U-251 was 83.9 µM (inactive).
Regarding `COC(=O)C1(Cc2ccc3c(c2)CCC3)Cc2ccccc2C1`, the GI50 is 37.8 µM (inactive) in the assay on 786-0; 69.5 µM (inactive) in the assay on BT-549; 36.2 µM (inactive) with CAKI-1; 26.9 µM (inactive) with HCT-116; 25.8 µM in the assay on HCT-15; 22.2 µM (inactive) in the assay on HT-29. Besides, the GI50 in the assay on IGROV-1 is 48.3 µM (inactive); in the assay on M14 it was 39.7 µM (inactive); in the assay with MDA-MB-435, 25.2 µM (inactive); in the assay on MDA-N, 29.9 µM (inactive); in the assay on Malme-3M, 27.4 µM (inactive); in the assay with NCI-H226, 29.9 µM (inactive). The GI50 in the assay with OVCAR-3 is 40.7 µM (inactive); in the assay on OVCAR-4 it was 16.8 µM (inactive); in the assay on PC-3 it was 16.1 µM (inactive); in the assay on SF-295 it was 27.4 µM (inactive); in the assay with SR, 29.6 µM (inactive); in the assay on TK-10, 82.8 µM (inactive). In addition, the GI50 with U-251 was 42.3 µM (inactive).
Regarding `COC(=O)C(CCC1CC(OC)N(C(=O)OCc2ccccc2)C1)/N=C/c1ccccc1` (stereo not given), the GI50 was > 100 µM (inactive) in the assay on 786-0; > 100 µM (inactive) in the assay with BT-549; > 100 µM (inactive) in the assay on CAKI-1; 55.3 µM (inactive) in the assay on HCT-116; over 100 µM in the assay on HCT-15; 59.4 µM (inactive) with HOP-92. In addition, the GI50 is 60.5 µM (inactive) with HT-29; 87.9 µM (inactive) in the assay on IGROV-1; 54.7 µM (inactive) in the assay with M14; 53.8 µM (inactive) in the assay on MDA-MB-435; 48 µM (inactive) in the assay with MDA-N; > 100 µM (inactive) in the assay with NCI-H226. The GI50 is 36.1 µM (inactive) in the assay with OVCAR-3; 62.1 µM (inactive) in the assay on OVCAR-4; 45.1 µM (inactive) in the assay with PC-3; > 100 µM (inactive) in the assay with SF-295; 30.5 µM (inactive) in the assay with SR; 98.6 µM (inactive) with TK-10. The GI50 in the assay with U-251 was > 100 µM (inactive).
`NC1C/C(=N\O)c2c(Cl)sc(Cl)c21` (stereo not given): the GI50 was 18.1 µM (inactive) in the assay with 786-0; 18.5 µM (inactive) in the assay on BT-549; 18 µM (inactive) with CAKI-1; 3.96 µM (inactive) in the assay on HCT-116; 15.6 µM with HCT-15; 22.9 µM (inactive) in the assay on HOP-92. The GI50 with HT-29 was 23.1 µM (inactive); with IGROV-1 it was 17 µM (inactive); with M14, 16.8 µM (inactive); in the assay on MDA-MB-435, 15.6 µM (inactive); with MDA-N it was 18 µM (inactive); in the assay on Malme-3M, 19.5 µM (inactive). Also, the GI50 in the assay on NCI-H226 was 21.9 µM (inactive); in the assay on OVCAR-3, 17.3 µM (inactive); with OVCAR-4, 17.3 µM (inactive); in the assay on PC-3 it was 20.8 µM (inactive); with SF-295, 28.1 µM (inactive); in the assay with SR it was 20.1 µM (inactive). The GI50 in the assay with TK-10 was 17.5 µM (inactive).

The record behind these values is ChEMBL document CHEMBL1201862, “PubChem BioAssay data set” (2004).
